Data: US5153352A, “Process for preparation of intermediates of carbocyclic nucleoside analogs” (priority 1990, dated 1992)
pEC50: −log10 of the molar value. Values after ≈ are worked out from the molar mass of the structure shown. Values joined by “and” are separate entries in the source; they are usually repeats but may differ in a detail not shown here. Equal values may be shown once.

Experiments:
[1] = system: HCT8: Adenocarcinoma, ileocecal; test: cytotoxic activity against cultured tumor cells, HCT-8; assay type: cell-based; details: Homo sapiens, 72 h; HCT-8, 3 days, MTT
[2] = system: Herpes simplex type 1 (HSV-1) strain E-377; test: CPE-inhibition assay, HSV-1 strain E-377 in Vero cells
[3] = system: Human Cytomegalovirus (HCMV); test: HCMV virus yield reduction assay in MRC5 cells; assay type: cell-based, Human cytomegalovirus (strain AD169)
Procedure: Human diploid embryonic lung (MRC5) cells were grown in 35 mm wells of 6-well tissue culture plates. Subconfluent cell monolayers were rinsed with phosphate buffered saline (PBS) and were exposed to 0.5 ml/well of HCMV (strain AD169) suspension for 1.5 hours at 37° C. The virus suspension was diluted in MEM+2% fetal bovine serum (FBS) to yield a multiplicity of infection (MOI) of approximately 0.1 plaque forming units (PFU)/cell. Following the virus adsorption period, the inocula were removed and infected cell layers were rinsed with PBS. Aliquots (2.0 ml) of each test drug concentration (dissolved in MEM supplemented with 2% FBS) were dispensed into triplicate cell cultures: two virus infected cultures and one uninfected cytotoxicity control culture (exposed to medium without virus for 1.5 hours). Untreated virus infected control cultures and untreated, uninfected cell control cultures were fed with medium alone.
All cell culture fluids were replaced with fresh drug and medium 48 hours postinfection (p.i.).
On Day 6 p.i., the cell layers were examined microscopically for cytopathogenic effect (CPE) and drug cytotoxicity. The test and virus control cultures were then harvested by subjecting the cell layers to one cycle of freeze-thawing.
The harvested test and virus control samples were thawed and the infectious virus yield was determined by plaque assay in MRC5 cells grown in 12-well cluster plates. Inhibition of HCMV replication by each test compound was determined by comparing the progeny virus yields in the drug-treated cultures with the progeny virus yield in the untreated, virus infected control cultures.

[4] = system: Human Immunodificiency Virus (HIV-1); test: inhibition of HIV-1 replication in human PBMC (RT activity); assay type: cell-based; details: Human immunodeficiency virus 1; HIV-1, PBMC, median-effect method
Procedure: Human peripheral blood mononuclear cells (PBMC) from healthy HIV-1 seronegative and hepatitis B virus seroneqative donors were isolated by Ficoll-Hypague discontinuous gradient centrifugation at 1,000×g for 30 minutes, washed twice in phosphate buffered saline (pH 7.2; PBS), and pelleted at 300×g for 10 minutes. Before infection, the cells were stimulated by phytohemagglutinin (PHA) at a concentration of 16.7 ug/ml for three days in RPMI 1640 medium supplemented with 15% heat-inactivated fetal calf serum, 1.5 mM L-glutamine, penicillin (100 U/ml), streptomycin (100 ug/ml) and 4 mM sodium bicarbonate buffer.
Uninfected PHA stimulated human PBMC were uniformly distributed among 25 cm^2 flasks to give a 5 ml suspension containing about 2×10^6 cells/ml. Suitable dilutions of virus were added to infect the cultures. The mean reverse transcriptase (RT) activity of the inocula was 60,000 dpm RT activity/10^6 cells. […]
The RT assay was perfromed in 96-well microtiter plates as described by Spira, et al. (J. Clin. Microbiol. 25 97 (1987)). […] Four ml of scintillation fluid (Econofluor, NEN Research Products, Boston, Ma.) were added and the amount of radioactivity in each sample was determined using a Packard Tri Carb liquid scintillation analyzer (model 2,000CA). […]

[5] = system: P388D1: Lymphocytic Leukemia; test: cytotoxic activity against cultured tumor cells, P388-D1; assay type: cell-based; details: Mus musculus, P388D1, 72 h; P388-D1, 3 days, MTT
[6] = system: Human Immunodeficiency Virus (HIV-1); test: anti-HIV-1 protection of ATH8 cells (method of Mitsuya and Broder); assay type: cell-based; details: Human immunodeficiency virus 1, ATH-8, HIV-1, ATH8 cells, read-out: Protective Effect
Text: (§1) The method of Mitsuya and Broder (AIDS: Modern Concepts and Therapeutic Challenges; Broder, S. ED.; Marcel Dekker, Inc.; New York, 1987; Chapter 18) was used to determine the in vitro anti-HIV-1 and anti-HIV-2 activity in ATH8 cells of some compounds of the invention. The results of the test are expressed as the percentage of ATH8 cells that were protected from the cytopathogenic effects of HIV at various concentrations of the compound of the invention.

[7] = system: Human Immunodeficiency Virus (HIV-2); test: anti-HIV-2 protection of ATH8 cells (method of Mitsuya and Broder); assay type: cell-based; details: ATH-8, HIV-2, ATH8 cells, read-out: Protective Effect
Text: as §1

[8] = system: Herpes simplex type 2 (HSV-2) strain MS; test: CPE-inhibition assay, HSV-2 strain MS in Vero cells; details: for EC50: Human alphaherpesvirus 2, Vero, read-out: ID50 (minimum drug concentration that inhibited the CPE by 50%), HSV-2 (MS), Vero
[9] = Human betaherpesvirus 5, 144 h, 1.0 ug/ml
[10] = Human betaherpesvirus 5, 144 h, 3.2 ug/ml
[11] = Human betaherpesvirus 5, 144 h, 10 ug/ml
[12] = Human betaherpesvirus 5, 144 h, 32 ug/ml

Compound | IC50 [1] | TI (Therapeutic Index, MTC/ID50) ([2]; HSV-1 (E-377), Vero) | HCMV yield ([3]; 1.0 ug/ml) | HCMV yield ([3]; 3.2 ug/ml) | HCMV yield ([3]; 10 ug/ml) | HCMV yield ([3]; 32 ug/ml) | log reduction at 1 µg/mL [3, 9] | log reduction at 3.2 µg/mL [3, 10] | log reduction at 10 µg/mL [3, 11] | log reduction at 32 µg/mL [3, 12] | pEC50 [4] | IC50 [5] | inhibition at 1 µM [6] | inhibition at 10 µM [6] | inhibition at 1 µM [7] | inhibition at 10 µM [7] | EC50 [8] | other results
Nc1nc2c(ncn2C2CC(CO)C2CO)c(=O)[nH]1 (stereo not shown) [Example 1I, 9-(2',3'-Bis(hydroxymethyl)cyclobutyl)guanine] | > 100 µg/mL | 213 and 129 | 3.12 log10 PFU/ml | 2.43 log10 PFU/ml | 1.63 log10 PFU/ml | < 0.6 log10 PFU/ml | 1.15 | 1.84 | 2.64 | > 3.7 | 6.01 | 2.8 µg/mL (≈ 10.6 µM) | 51% | 90% | 24% | 65% | 6.4 µg/mL (≈ 24.1 µM) | EC50 ([2]; Human alphaherpesvirus 1, Vero, read-out: ID50 (minimum drug concentration that inhibited the CPE by 50%), HSV-1 (E-377), Vero): 1.5 µg/mL (≈ 5.65 µM); TI (Therapeutic Index, MTC/ID50) ([8]; HSV-2 (MS), Vero): 50 and 30
Nc1ncnc2c1ncn2C1CC(CO)C1CO (stereo not shown) [Example 4C, 9-(2',3'-Bis(hydroxymethyl)cyclobutyl)adenine] | 71.4 µg/mL (≈ 286 µM) | 3.7 and > 2.2 | 2.6 log10 PFU/ml | < 0.6 log10 PFU/ml | < 0.6 log10 PFU/ml | < 0.6 log10 PFU/ml | 2.1 | > 4.1 | > 4.1 | > 4.1 | 6.02 | 0.64 µg/mL (≈ 2.57 µM) | 48% | 63% | 33% | 70% | 18.1 µg/mL (≈ 72.6 µM) | VR (Virus Rating) ([2]; HSV-1 (E-377), Vero, >1.0 definite, 0.5-0.9 marginal to moderate, <0.5 no significant activity): 2.1; HCMV yield ([3]; 0.32 ug/ml): 3.3 log10 PFU/ml; log reduction at 0.32 µg/mL ([3]; Human betaherpesvirus 5, 144 h, 0.32 ug/ml): 1.4; inhibition at 100 µM ([6]; 100 uM): 76%
